From patent US8865914B2, “Fluorescent probes for detection of copper” (The Regents of the University of California, priority 2012, dated 2014) come the findings set out here.

One data set deals with HEK293 cells. Briefly: Flow cytometry and confocal live-cell imaging of intracellular Cu^+. It is filed as cell-based, Human. The settings on record: HEK293 cells loaded with 100 μM copper chloride, with or without copper chelator. As for the experimental part:
Cells were grown in the Tissue Culture Facility at the University of California, Berkeley with expert technical assistance from Ann Fischer and Michelle Yasukawa. HEK (Human Embryonic Kidney) 293T cells were cultured in Dulbecco's Modified Eagle Medium (DMEM, Invitrogen, Carlsbad, Calif.) supplemented with 10% Fetal Bovine Serum (FBS, Invitrogen, Carlsbad, Calif.) and glutamine (2 mM). Two days before imaging, cells were passed and plated on 12-mm glass coverslips coated with poly-L-lysine ([…], Sigma, St. Louis, Mo.). For all experiments, solutions of dyes (from 5 mM stocks in DMSO) were made in Dulbecco's Phosphate buffered saline (DPBS, GIBCO) without calcium chloride, magnesium chloride, magnesium sulfate, sodium bicarbonate, or phenol red. For copper treatment, HEK 293T cells were cultured as described above. One day prior to imaging, 100 μM CuCl2 was added to cells from a 100 mM aqueous stock solution. Cells were then incubated at 37° C., 5% CO2. After 10-12 hours, the media was exchanged for DPBS. Flowcytometry were performed with LSRFortessaTM cell analyzer (BD Biosciences) equipping 640 nm red laser and PE-Cy7 band pass filter. Cells were prepared as described above, and then 3-5 μM CS788 or […] […] Confocal fluorescence images were acquired at the Molecular Imaging Center at the University of California, Berkeley. […]
(A flow cytometer gives signals particle by particle.)

A further data set deals with SKH1 mice. Briefly: Fluorescence imaging experiments in living mice. The settings on record: for detection of endogenous levels of copper in mice: fluorescence imaging in mice; for detection of changes in copper levels in living mice: mice injected i.p. with copper chloride, copper chelator (ATN-224) or both, then dye. It is filed as in vivo. As for the experimental part:
Fluorescence images of mice were acquired using a Xenogen IVIS Spectrum instrument. SKH1 mice were obtained from Charles River Labs. Mice were single or group-housed on a 12:12 light-dark cycle at 22° C. with free access to food and water. SKH1 mice, aged 5-10 weeks, were anesthetized with isoflurane and injected with 1) DPBS (i.p., 100 μL), 2) CuCl2 (i.p., 5 mg/kg in 50 μL of DPBS) and DBPS (i.p., 50 μL), 3) CuCl2 (i.p., 5 mg/kg in 50 μL of DPBS) and ATN-224 (i.p., 5 mg/kg in 50 μL of DPBS), or 4) ATN-224 (i.p., 5 mg/kg in 50 μL of DPBS) and DBPS (i.p., 50 μL). 0-24 hours later, the mice were anesthetized with isoflurane and injected (i.p.) with DPBS (50 μL) or a dye (0.1 mM, 50 μL) and imaged immediately or up to 10 days later. All animal studies were approved and performed according to the guidelines of the Animal Care and Use Committee of the University of California, Berkeley.

A short description of data set [1]: Spectroscopic fluorescence response to Cu(I) and its pH dependency in HEPES buffer. Type of data set: physicochemical. The note with it: for fluorescence response to Cu(I): 20 mM HEPES, pH 7; for sensitivity of fluorescence to pH changes: physiological pH range. As for the experimental part: (§1) Millipore water was used to prepare all aqueous solutions. All spectroscopic measurements were performed in 20 mM HEPES buffer, pH 7.0. Absorption spectra were recorded on a Varian Cary 50 spectrophotometer (Walnut Creek, Calif.) and fluorescence spectra were recorded on a Photo Technology International Quanta Master 4 L-format scan spectrofluorometer (Lawrenceville, N.J.) equipped with an LPS-220B 75-W xenon lamp and power supply, A-1010B lamp housing with integrated igniter, switchable 814 photocounting/analog photomultiplier detection unit, and MD5020 motor driver. Samples for absorption and emission measurements were contained in 1-cm×1-cm quartz cuvettes (1.4-mL volume, Starna, Atascadero, Calif.). Metals used in the selectivity assay were derived from their chloride salts or nitrate salts. The binding affinity of Cu^+ to the dyes was measured using thiourea as a competitive ligand to provide a buffered Cu^+ solution. Briefly, a 1-2 μM solution of dye was made in 20 mM HEPES, pH 7.0 and buffered with a known concentration of thiourea from a 500 mM stock in MilliQ H2O. Cu(I) was delivered in the form of [Cu(MeCN)4][PF6] from an acetonitrile stock solution (2 or 10 mM). The maximum acetonitrile concentration was 0.1%; this concentration of acetonitrile is not high enough to effectively compete with the dyes for Cu^+. Stability constants for thiourea binding were taken from the literature: β12=2.0×10^12, β13=2.0×10^14, β14=3.4×10^15. Martell, A. E.; Smith, R. M. Critical Stability Constants; Plenum Press: New York, 1989. The apparent dissociation constant (Kd) was determined using the following equation: (F−Fmin)/(Fmax−Fmin)=[Cu^+]/(Kd+[Cu^+]), where F is the observed fluorescence; Fmax is the fluorescence for the Cu^+:dye complex; Fmin is the fluorescence for the dye; and [Cu^+] is the ‘free’ Cu^+ available for complexation, which was calculated using the stability constants for thiourea and standard competition equilibrium expressions.

Data set [2] in a line: Metal selectivity assay (fluorescence response to various metal ions). Type of data set: binding. The settings on record: 20 mM HEPES, pH 7. As for the experimental part:
as §1, with “Briefly, a 1-2 μM solution of dye was made in 20 mM HEPES, pH 7.0 and buffered with a known concentration of thiourea from a 500 mM stock in MilliQ H2O. Cu(I) was delivered in the form of [Cu(MeCN)4][PF6] from an acetonitrile stock solution (2 or 10 mM). The maximum acetonitrile concentration was 0.1%; this concentration of acetonitrile is not high enough to effectively compete with the dyes for Cu^+. Stability constants for thiourea binding were taken from the literature: β12=2.0×10^12, β13=2.0×10^14, β14=3.4×10^15. Martell, A. E.; Smith, R. M. Critical Stability Constants; Plenum Press: New York, 1989.” left out

Structures are written as SMILES.

Regarding `CCCN1/C(=C/C=C2\CCCC(/C=C/C3=[N+](CCC)c4ccccc4C3(C)C)=C2Oc2ccc(N(CCSCCSCC)CCSCCSCC)cc2)C(C)(C)c2ccccc21.[I-]` [CS788], the “detection of copper level changes in living cells” value with HEK293 cells was “increased fluorescence in cells loaded with copper chloride”. In the data set with SKH1 mice, the “detection of endogenous levels of copper in mice” value was “able to detect endogenous levels of copper” and the “detection of changes in copper levels in living mice” value was “can detect changes in copper levels in mice”. For the same molecule, in data set [1], the “fluorescence response to Cu(I)” value is recorded as “large fluorescence increase” and the “sensitivity of fluorescence to pH changes” value was “insensitive to pH changes”. Also, the “selectivity for Cu(I) over other transition metals, alkali metals and alkali earth metals” value in data set [2] is recorded as “bind selectively to Cu(I)”.
Regarding `CSCCCNc1ccc(OC2=C(/C=C/C3=[N+](CCC(=O)OCOC(C)=O)c4ccccc4C3(C)C)CCC/C2=C\C=C2\N(CCC(=O)OCOC(C)=O)c3ccccc3C2(C)C)cc1SCCCSC.[Br-]` [CS790AM], the “detection of copper level changes in living cells” value with HEK293 cells was “increased fluorescence in cells loaded with copper chloride”. Besides, in the data set with SKH1 mice, the “detection of endogenous levels of copper in mice” value is given as “able to detect endogenous levels of copper” and the “detection of changes in copper levels in living mice” value is given as “can detect changes in copper levels in mice”. Besides, the “changes in integrated fluorescence from individual mice” value in the data set with SKH1 mice (two-tailed Student's t-test, P<0.05, n=3, except the change between CS790AM and copper, ATN-244, and CS790AM) was “statistically significant”. In addition, in data set [1], the “fluorescence response to Cu(I)” value is “large fluorescence increase” and the “sensitivity of fluorescence to pH changes” value is “insensitive to pH changes”. The “selectivity for Cu(I) over other transition metals, alkali metals and alkali earth metals” value in data set [2] is on record as “bind selectively to Cu(I)”.
